According to ChEMBL document CHEMBL4825743, “Novel Substituted Heterocyclic and Heteroaryl Compounds for Treating Huntington's Disease” (ACS Med Chem Lett, 2021):

Each compound was assayed against Huntingtin (Homo sapiens, UniProt P42858) (assay: Inhibition of Huntingtin protein (unknown origin) incubated for overnight in presence of MW1/MAB2166 monoclonal antibody by ELISA-based MSD electrochemiluminescence assay).
Huntingtin, sequence (P42858 whole entry): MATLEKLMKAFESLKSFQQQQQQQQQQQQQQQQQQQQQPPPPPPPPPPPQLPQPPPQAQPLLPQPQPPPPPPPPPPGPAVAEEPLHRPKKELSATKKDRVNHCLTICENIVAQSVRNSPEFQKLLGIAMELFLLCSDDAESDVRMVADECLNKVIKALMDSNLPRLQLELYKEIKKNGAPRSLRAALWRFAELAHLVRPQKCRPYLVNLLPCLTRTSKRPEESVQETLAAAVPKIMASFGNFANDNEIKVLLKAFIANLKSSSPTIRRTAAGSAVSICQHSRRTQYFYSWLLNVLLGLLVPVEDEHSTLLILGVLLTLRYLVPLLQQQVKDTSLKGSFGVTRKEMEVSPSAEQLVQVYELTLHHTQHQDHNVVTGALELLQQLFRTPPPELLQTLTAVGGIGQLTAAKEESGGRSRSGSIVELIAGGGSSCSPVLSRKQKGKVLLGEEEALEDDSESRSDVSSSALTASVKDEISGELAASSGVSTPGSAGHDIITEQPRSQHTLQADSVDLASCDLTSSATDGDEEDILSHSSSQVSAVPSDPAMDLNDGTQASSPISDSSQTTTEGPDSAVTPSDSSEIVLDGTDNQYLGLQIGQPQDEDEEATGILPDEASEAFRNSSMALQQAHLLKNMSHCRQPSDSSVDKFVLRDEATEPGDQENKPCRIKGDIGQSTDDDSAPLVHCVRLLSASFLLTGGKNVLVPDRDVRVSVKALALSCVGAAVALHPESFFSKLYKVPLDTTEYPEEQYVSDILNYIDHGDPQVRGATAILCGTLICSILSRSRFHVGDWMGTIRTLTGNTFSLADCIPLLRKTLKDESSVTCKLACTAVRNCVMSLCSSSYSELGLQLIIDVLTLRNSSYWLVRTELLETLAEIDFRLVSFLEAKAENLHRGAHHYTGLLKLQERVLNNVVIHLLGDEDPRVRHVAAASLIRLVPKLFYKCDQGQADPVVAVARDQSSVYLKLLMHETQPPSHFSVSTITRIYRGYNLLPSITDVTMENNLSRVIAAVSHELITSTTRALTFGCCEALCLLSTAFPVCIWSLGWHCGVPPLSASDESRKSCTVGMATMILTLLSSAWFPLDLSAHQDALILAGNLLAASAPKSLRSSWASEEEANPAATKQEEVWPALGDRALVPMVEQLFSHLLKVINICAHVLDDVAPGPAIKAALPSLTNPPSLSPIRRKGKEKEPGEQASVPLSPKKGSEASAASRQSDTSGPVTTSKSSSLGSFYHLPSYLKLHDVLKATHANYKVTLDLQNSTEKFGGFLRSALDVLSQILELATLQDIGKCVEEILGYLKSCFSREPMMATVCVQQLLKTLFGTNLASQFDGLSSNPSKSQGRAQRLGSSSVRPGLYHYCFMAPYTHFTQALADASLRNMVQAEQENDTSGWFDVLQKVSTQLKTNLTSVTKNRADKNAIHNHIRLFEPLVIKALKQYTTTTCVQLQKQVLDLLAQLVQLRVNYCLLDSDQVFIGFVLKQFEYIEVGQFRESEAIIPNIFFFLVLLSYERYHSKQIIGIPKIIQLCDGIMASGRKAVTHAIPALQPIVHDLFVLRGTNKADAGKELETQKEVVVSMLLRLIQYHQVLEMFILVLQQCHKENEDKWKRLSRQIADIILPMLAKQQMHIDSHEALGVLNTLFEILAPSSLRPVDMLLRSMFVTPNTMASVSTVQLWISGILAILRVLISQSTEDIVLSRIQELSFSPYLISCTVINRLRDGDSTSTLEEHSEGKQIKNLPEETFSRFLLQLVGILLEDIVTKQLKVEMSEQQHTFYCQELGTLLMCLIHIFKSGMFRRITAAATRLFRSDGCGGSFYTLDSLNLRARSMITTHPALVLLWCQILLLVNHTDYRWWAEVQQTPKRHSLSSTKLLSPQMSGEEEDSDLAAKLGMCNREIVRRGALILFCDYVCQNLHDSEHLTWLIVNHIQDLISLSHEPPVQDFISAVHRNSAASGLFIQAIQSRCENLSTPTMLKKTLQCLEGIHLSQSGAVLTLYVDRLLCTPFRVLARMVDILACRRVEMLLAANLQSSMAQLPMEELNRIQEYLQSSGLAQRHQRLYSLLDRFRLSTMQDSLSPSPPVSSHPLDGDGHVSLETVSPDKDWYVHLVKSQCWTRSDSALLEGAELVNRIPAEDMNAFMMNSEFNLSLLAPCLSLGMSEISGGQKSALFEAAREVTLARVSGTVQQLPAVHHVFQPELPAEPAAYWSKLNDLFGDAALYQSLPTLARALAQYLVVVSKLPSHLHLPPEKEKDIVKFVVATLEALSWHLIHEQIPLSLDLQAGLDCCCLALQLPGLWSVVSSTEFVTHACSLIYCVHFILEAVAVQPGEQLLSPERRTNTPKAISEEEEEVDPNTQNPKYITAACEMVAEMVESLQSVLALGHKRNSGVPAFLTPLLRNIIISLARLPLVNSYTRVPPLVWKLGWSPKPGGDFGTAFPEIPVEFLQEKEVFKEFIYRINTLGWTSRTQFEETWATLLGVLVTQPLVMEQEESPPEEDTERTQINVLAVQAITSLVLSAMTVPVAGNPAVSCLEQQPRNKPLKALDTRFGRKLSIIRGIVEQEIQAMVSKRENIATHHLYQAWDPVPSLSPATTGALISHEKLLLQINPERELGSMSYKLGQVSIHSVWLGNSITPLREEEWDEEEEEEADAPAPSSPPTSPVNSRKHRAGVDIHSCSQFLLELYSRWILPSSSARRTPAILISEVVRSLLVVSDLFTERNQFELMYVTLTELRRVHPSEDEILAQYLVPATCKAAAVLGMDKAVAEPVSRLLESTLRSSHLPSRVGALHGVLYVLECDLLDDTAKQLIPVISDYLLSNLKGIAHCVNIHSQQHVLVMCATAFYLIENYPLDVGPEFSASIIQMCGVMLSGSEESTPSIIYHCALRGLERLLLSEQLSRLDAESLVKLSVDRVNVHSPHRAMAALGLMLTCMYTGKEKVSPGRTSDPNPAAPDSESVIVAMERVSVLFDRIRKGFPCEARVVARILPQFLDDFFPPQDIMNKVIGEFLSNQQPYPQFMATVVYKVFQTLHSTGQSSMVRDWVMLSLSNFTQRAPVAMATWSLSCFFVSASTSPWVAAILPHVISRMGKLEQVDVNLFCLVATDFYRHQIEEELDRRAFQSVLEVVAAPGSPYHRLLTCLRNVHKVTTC

| IC50 [nM] | Structure (SMILES) |
| --- | --- |
| ≤ 100 | CC1(C)CC(n2nnc3cc(-c4ccc(-c5ncco5)cc4O)nnc32)CC(C)(C)N1 |
| ≤ 100 | COc1ncnc(-c2ccc(-c3cc4nnn(C5CC(C)(C)NC(C)(C)C5)c4nn3)c(O)c2)n1 |
| ≤ 100 | CC1(C)C=C(c2csc3cc(-c4ccc(-c5cn[nH]c5)cc4O)nnc23)CC(C)(C)N1 |
| ≤ 100 | CC1(C)CC(n2nnc3cc(-c4ccc(-c5nncs5)cc4O)nnc32)CC(C)(C)N1 |
| ≤ 100 | CC1(C)CC(n2nnc3cc(-c4ccc(-c5nccs5)cc4O)nnc32)CC(C)(C)N1 |
| ≤ 100 | CC1(C)CC(n2nnc3cc(-c4ccc(-n5nccn5)cc4O)nnc32)CC(C)(C)N1 [VOTOPLAM] |
